From patent US6776984B1, “Induced regeneration and repair of damaged neurons and nerve axon myelin” (priority 1999, dated 2004)

System: B6SJL-TgN(SOD1-G93A)1 Gur strain mice
Test: Transgenic mouse model of familial amyotrophic lateral sclerosis (limb paralysis, survival)
Type: in vivo
From the text: B6SJL-TgN(SOD1-G93A)1 Gur strain mice were obtained from. The Jackson Laboratory, Bar Harbor, Me. The transgene in these mice carries a high copy number of a mutant allele human SOD1 containing the Gly93 →Ala (G93A) substitution (often referred to as G1H). Mice progressively become paralyzed in one or more limbs, with paralysis due to loss of motor neurons from the spinal cord. The mice are generally described in Gurney M E, Pu H, Chiu A Y, Dal Canto M C, Polchow C Y, Alexander D D, Caliendo J, Hentati A, Kwon Y W, Deng H X, Chen W, Zhai P, Sufit R L, Siddique T: Motor neuron degeneration in mice that express a human Cu,Zn superoxide dismutase mutation. Science 264:1772-1775 (1994), and use of these mice as a model of familial amyotrophic lateral sclerosis is described in Chiu A Y, Zhai P, Dal Canto M C, Peters T M, Kwon Y W, Prattis S M, Gurney M E: Age-dependent penetrance of disease in a transgenic mouse model of familial amyotrophic lateral sclerosis. Mol Cell Neurosci 6:349-362 (1995).
At 105 days following birth, mouse A began manifesting objective symptoms of limb paralysis. A protocol as described in Table 1 was followed.
The thrombopoietin was obtained from Rand D. Systems, Inc. (Minneapolis, Minn.) as carrier-free recombinant thrombopoietin and the thryrotropin was obtained from Ferring Pharmaceuticals; both were administered by intraperitoneal (i.p.) injection. Synthroid®, a form of levothyroxine, was obtained from Flint Pharmaceuticals in 100 μg tablets.
A litter mate of mouse A, referred to as mouse B, was administered a protocol as described in Table 2, with administration commencing prior to the onset of any objective symptoms.
A B6SJL-TgN(SOD1-G93A)1Gur strain mouse as described in Example 1 was obtained, referred to as mouse C. Mouse C was administered a protocol as described in Table 3, with administration commencing prior to the onset of any objective symptoms.

[1] = mouse A, Table 1 protocol, thrombopoietin i.p. days 107, 110, 113

Substance: thrombopoietin
- objective symptoms observed at day 111 (mouse A, symptomatic from day 105, after thrombopoietin 0.5 cc of 1 μg/cc i.p. on days 107 and 110): marked improvement
- objective symptoms observed on day 124 (mouse A, Table 1 protocol): increasing front limb weakness
- day of death (mouse A, Table 1 protocol (thrombopoietin, thyrotropin releasing hormone, Synthroid) started after symptom onset): 126 days
- objective symptoms observed on day 122 (mouse A, Table 1 protocol, Synthroid in drinking water from day 121): marked improvement in front limbs
- objective symptoms observed by day 118 (mouse A, Table 1 protocol, after thrombopoietin plus thyrotropin releasing hormone i.p. on day 117): decreased weakness
- objective symptoms observed at day 113 [1]: shaking resumed
- objective symptoms observed by day 115 [1]: marked hind limb weakness
- objective symptoms observed on day 120 (mouse A, Table 1 protocol, thrombopoietin i.p. through day 119): increased mobility
- day of death (mouse B, Table 2 protocol): 132 days
- delay of onset of objective signs versus litter mate mouse A (mouse B, Table 2 protocol): 16 days
- objective symptoms observed at day 129 (mouse B, Table 2 protocol): posterior limb paralysis
- day of first objective signs (slight posterior weakness) (mouse B, Table 2 protocol, thrombopoietin i.p. from day 87, Synthroid in drinking water from day 105, started before symptoms): 121 days
- day through which no objective signs of illness were observed (mouse C, Table 3 protocol, thrombopoietin i.p. days 80-88, Synthroid in drinking water from day 92, expected onset 91±14 days): > 110 days
